From US20260285863A1, “COMPOUNDS CAPABLE OF MODULATING GPR65” (Pathios Therapeutics Limited, priority 2023, published 2026)

Molecular target: T1, human recombinant GPR65 (Homo sapiens, UniProt Q8IYL9)
T1 construct: host or cells: 1321N1 human astrocytoma cells (1321N1-hrGPR65)
Test: Human GPR65 cAMP HTRF antagonist assay
Assay type: cell-based
Details: 1321N1-hrGPR65 cells, assay pH 7.2, cAMP HTRF; read-out: hGPR65 IC50
Summary of the method: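 1321N1 cells stably expressing human GPR65 were preincubated 30 min at room temperature with compound in KRH pH 7.6 containing 1 mM IBMX and 200 μM EDTA. They were then acid-stimulated to pH 7.2 for 30 min, with pH 7.9 as control. cAMP was read by HTRF (665/620 ratio), and IC50 came from normalised 4-parameter logistic fits.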

T1 sequence (Q8IYL9 whole entry): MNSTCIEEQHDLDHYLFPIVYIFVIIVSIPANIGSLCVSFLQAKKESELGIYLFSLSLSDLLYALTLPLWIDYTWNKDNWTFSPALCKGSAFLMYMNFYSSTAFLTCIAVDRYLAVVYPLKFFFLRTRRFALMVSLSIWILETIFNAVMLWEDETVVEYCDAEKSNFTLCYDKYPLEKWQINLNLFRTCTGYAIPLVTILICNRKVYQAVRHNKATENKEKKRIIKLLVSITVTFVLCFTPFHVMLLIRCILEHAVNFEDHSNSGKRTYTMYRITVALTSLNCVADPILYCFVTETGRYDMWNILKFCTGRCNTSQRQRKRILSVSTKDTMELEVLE

SMILES	IC50 [nM]
O=C(Nc1cc(Cl)c(-c2ccc(OC[C@@H]3CCOC3)nc2)cc1F)N1[C@H]2CC[C@@H]1c1n[nH]c(=O)cc1C2 [Compound 79, (6S,9R)-N-(5-Chloro-2-fluoro-4-(6-(((R)-tetrahydrofuran-3-yl)methoxy)pyridin-3-yl)phenyl)-3-oxo-3,5,6,7,8,9-hexahydro-2H-6,9-epiminocyclohepta[c]pyridazine-10-carboxamide]	< 500
O=C(Nc1cc(Cl)c(-c2ccc(OC[C@H]3CCOC3)nc2)cc1F)N1[C@H]2CC[C@@H]1c1n[nH]c(=O)cc1C2 [Compound 80, (6S,9R)-N-(5-Chloro-2-fluoro-4-(6-(((S)-tetrahydrofuran-3-yl)methoxy)pyridin-3-yl)phenyl)-3-oxo-3,5,6,7,8,9-hexahydro-2H-6,9-epiminocyclohepta[c]pyridazine-10-carboxamide]	< 500
O=C(Nc1cc(Cl)c(-c2ccc(OC[C@H]3CC3(F)F)nc2)cc1F)N1[C@H]2CC[C@@H]1c1n[nH]c(=O)cc1C2 [Compound 81, (6S,9R)-N-(5-Chloro-4-(6-(((R)-2,2-difluorocyclopropyl)methoxy)pyridin-3-yl)-2-fluorophenyl)-3-oxo-3,5,6,7,8,9-hexahydro-2H-6,9-epiminocyclohepta[c]pyridazine-10-carboxamide]	< 500
O=C(Nc1cc(Cl)c(-c2ccc(OC[C@H]3CC3(F)F)nc2)cc1F)N1[C@H]2CC[C@@H]1c1c[nH]c(=O)cc1C2 [Compound 82, (6S,9R)-N-(5-Chloro-4-(6-(((R)-2,2-difluorocyclopropyl)methoxy)pyridin-3-yl)-2-fluorophenyl)-3-oxo-3,5,6,7,8,9-hexahydro-2H-6,9-epiminocyclohepta[c]pyridine-10-carboxamide]	< 500
O=C(Nc1cc(Cl)c(-c2ccc(OC[C@@H]3CC3(F)F)nc2)cc1F)N1[C@H]2CC[C@@H]1c1n[nH]c(=O)cc1C2 [Compound 83, (6S,9R)-N-(5-Chloro-4-(6-(((S)-2,2-difluorocyclopropyl)methoxy)pyridin-3-yl)-2-fluorophenyl)-3-oxo-3,5,6,7,8,9-hexahydro-2H-6,9-epiminocyclohepta[c]pyridazine-10-carboxamide]	< 500
O=C(Nc1cc(Cl)c(-c2ccc(OC3CCOCC3)nc2)cc1F)N1[C@H]2CC[C@@H]1c1n[nH]c(=O)cc1C2 [Compound 84, (6S,9R)-N-(5-Chloro-2-fluoro-4-(6-((tetrahydro-2H-pyran-4-yl)oxy)pyridin-3-yl)phenyl)-3-oxo-3,5,6,7,8,9-hexahydro-2H-6,9-epiminocyclohepta[c]pyridazine-10-carboxamide]	< 500
O=C(Nc1cc(Cl)c(-c2ccc(OC[C@@H]3CC3(F)F)nc2)cc1F)N1[C@H]2CC[C@@H]1c1c[nH]c(=O)cc1C2 [Compound 85, (6S,9R)-N-(5-Chloro-4-(6-(((S)-2,2-difluorocyclopropyl)methoxy)pyridin-3-yl)-2-fluorophenyl)-3-oxo-3,5,6,7,8,9-hexahydro-2H-6,9-epiminocyclohepta[c]pyridine-10-carboxamide]	< 500
O=C(Nc1cc(Cl)c(-c2ccc(OCC3(F)CC3)nc2)cc1F)N1[C@H]2CC[C@@H]1c1n[nH]c(=O)cc1C2 [Compound 86, (6S,9R)-N-(5-Chloro-2-fluoro-4-(6-((1-fluorocyclopropyl)methoxy)pyridin-3-yl)phenyl)-3-oxo-3,5,6,7,8,9-hexahydro-2H-6,9-epiminocyclohepta[c]pyridazine-10-carboxamide]	< 500
O=C(Nc1cc(Cl)c(-c2ccc(OC3CCS(=O)(=O)CC3)nc2)cc1F)N1[C@H]2CC[C@@H]1c1n[nH]c(=O)cc1C2 [Compound 87, (6S,9R)-N-(5-Chloro-4-(6-((1,1-dioxidotetrahydro-2H-thiopyran-4-yl)oxy)pyridine-3-yl)-2-fluorophenyl)-3-oxo-3,5,6,7,8,9-hexahydro-2H-6,9-epiminocyclohepta[c]pyridazine-10-carboxamide]	< 500
O=C(Nc1cc(Cl)c(Cl)cc1OCC1CC1(F)F)N1[C@H]2CC[C@@H]1c1n[nH]c(=O)cc1C2 (stereo partly drawn) [Compound 88, (6S,9R)-N-(4,5-Dichloro-2-((2,2-difluorocyclopropyl)methoxy)phenyl)-3-oxo-3,5,6,7,8,9-hexahydro-2H-6,9-epiminocyclohepta[c]pyridazine-10-carboxamide]	> 5000
O=C(Nc1cc(Cl)c(Cl)cc1OCC1(F)CC1)N1[C@H]2CC[C@@H]1c1n[nH]c(=O)cc1C2 [Compound 89, (6S,9R)-N-(4,5-Dichloro-2-((1-fluorocyclopropyl)methoxy)phenyl)-3-oxo-3,5,6,7,8,9-hexahydro-2H-6,9-epiminocyclohepta[c]pyridazine-10-carboxamide]	> 5000
O=C1c2ccc(NC(=O)N3[C@H]4CC[C@@H]3c3n[nH]c(=O)cc3C4)cc2C(=O)N1c1ccc(OCC(F)(F)F)nc1 [Compound 91, (6S,9R)-N-(1,3-Dioxo-2-(6-(2,2,2-trifluoroethoxy)pyridin-3-yl)isoindolin-5-yl)-3-oxo-3,5,6,7,8,9-hexahydro-2H-6,9-epiminocyclohepta[c]pyridazine-10-carboxamide]	500 to 5000
O=C(Nc1cc(Cl)c(-c2ccc(Nc3cc(Cl)c(-c4ccc(OCC(F)(F)F)nc4)cc3F)nc2)cc1F)N1[C@H]2CC[C@@H]1c1n[nH]c(=O)cc1C2 [Compound 92, (6S,9R)-N-(5-Chloro-4-(6-((5-chloro-2-fluoro-4-(6-(2,2,2-trifluoroethoxy)pyridin-3-yl)phenyl)amino)pyridin-3-yl)-2-fluorophenyl)-3-oxo-3,5,6,7,8,9-hexahydro-2H-6,9-epiminocyclohepta[c]pyridazine-10-carboxamide]	< 500
